Legend:
[1] = The drug is tested on Clostridium asparagiforme strain: DSM15981 for biotransformation. The drug concentrations were measured before and after a 12-h incubation by liquid-chromatography-coupled mass spectrometry (LC–MS); type: ADME; design: dose 2 uM, timepoint 0 vs 12 hours; conditions: enterocloster asparagiformis, 2 µM
[2] = victivallis vadensis, 12 h, 2 µM
Description: The drug is tested on Victivallis vadensis strain: ATCC BAA-548 for biotransformation. The drug concentrations were measured before and after a 12-h incubation by liquid-chromatography-coupled mass spectrometry (LC–MS)

[3] = The drug is tested on Anaerococcus hydrogenalis strain: DSM7454 for biotransformation. The drug concentrations were measured before and after a 12-h incubation by liquid-chromatography-coupled mass spectrometry (LC–MS); conditions: 2 µM
[4] = The drug is tested on Bacteroides fragilis strain: HMW615 for biotransformation. The drug concentrations were measured before and after a 12-h incubation by liquid-chromatography-coupled mass spectrometry (LC–MS); conditions: 2 µM
[5] = biological target: T1, GDSL-like protein (Collinsella aerofaciens, UniProt A4E8S4); experiment: (§1) The drug is tested on Collinsella aerofaciens strain: ATCC25986 for biotransformation. The drug concentrations were measured before and after a 12-h incubation by liquid-chromatography-coupled mass spectrometry (LC–MS); type: ADME; design: dose 2 uM; conditions: 2 µM
T1 sequence (A4E8S4 whole entry): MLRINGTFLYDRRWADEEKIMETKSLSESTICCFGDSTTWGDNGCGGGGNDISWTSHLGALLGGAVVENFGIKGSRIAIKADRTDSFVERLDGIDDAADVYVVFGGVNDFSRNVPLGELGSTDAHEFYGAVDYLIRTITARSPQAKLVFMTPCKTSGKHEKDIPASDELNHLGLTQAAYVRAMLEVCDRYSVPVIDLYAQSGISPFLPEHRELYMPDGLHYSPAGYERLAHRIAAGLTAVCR

[6] = biological target: T2, Diguanylate cyclase (Collinsella aerofaciens, UniProt A4EB91); experiment: as §1; type: ADME; design: dose 2 uM; conditions: 2 µM
T2 sequence (A4EB91 whole entry): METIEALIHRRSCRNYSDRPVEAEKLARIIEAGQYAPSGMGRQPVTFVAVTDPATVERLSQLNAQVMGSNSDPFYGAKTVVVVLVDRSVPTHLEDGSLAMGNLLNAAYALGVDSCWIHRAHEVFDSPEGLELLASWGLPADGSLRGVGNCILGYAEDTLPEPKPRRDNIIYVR

[7] = biological target: T3, Nitroreductase domain-containing protein (Phocaeicola dorei, UniProt B6VU18); experiment: (§2) The drug is tested on Bacteroides dorei strain: DSM17855 for biotransformation. The drug concentrations were measured before and after a 12-h incubation by liquid-chromatography-coupled mass spectrometry (LC–MS); type: ADME; design: dose 2 uM; conditions: 2 µM
T3 sequence (B6VU18 whole entry): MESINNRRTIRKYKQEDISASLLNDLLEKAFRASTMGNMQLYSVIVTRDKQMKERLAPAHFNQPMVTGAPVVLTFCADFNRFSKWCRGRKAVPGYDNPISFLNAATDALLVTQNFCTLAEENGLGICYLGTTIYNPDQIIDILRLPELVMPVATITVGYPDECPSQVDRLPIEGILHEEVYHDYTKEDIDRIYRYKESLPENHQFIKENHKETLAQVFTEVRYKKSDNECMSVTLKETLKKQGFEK

[8] = biological target: T4, Nitroreductase domain-containing protein (Phocaeicola dorei, UniProt B6W3P3); experiment: as §2; type: ADME; design: dose 2 uM; conditions: 2 µM
T4 sequence (B6W3P3 whole entry): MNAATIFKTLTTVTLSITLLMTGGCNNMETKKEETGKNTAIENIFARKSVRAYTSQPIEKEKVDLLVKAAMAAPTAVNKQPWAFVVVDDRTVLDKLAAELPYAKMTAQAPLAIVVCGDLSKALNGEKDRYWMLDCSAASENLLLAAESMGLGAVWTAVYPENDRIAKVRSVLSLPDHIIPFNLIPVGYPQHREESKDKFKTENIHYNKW

[9] = biological target: T5, Steroid 5-alpha reductase C-terminal domain-containing protein (Phocaeicola dorei, UniProt B6W0N3); experiment: as §2; type: ADME; design: dose 2 uM; conditions: 2 µM
T5 sequence (B6W0N3 whole entry): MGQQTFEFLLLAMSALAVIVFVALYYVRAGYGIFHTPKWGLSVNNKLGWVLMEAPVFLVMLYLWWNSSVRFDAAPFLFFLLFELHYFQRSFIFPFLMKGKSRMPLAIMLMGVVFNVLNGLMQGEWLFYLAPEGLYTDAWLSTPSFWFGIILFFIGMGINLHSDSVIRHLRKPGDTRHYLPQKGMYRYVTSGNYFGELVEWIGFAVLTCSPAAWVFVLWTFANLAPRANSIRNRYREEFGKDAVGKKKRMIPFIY

[10] = biological target: T6, Acyltransferase 3 domain-containing protein (Phocaeicola dorei, UniProt B6W2J3); experiment: as §2; type: ADME; design: dose 2 uM; conditions: 2 µM
T6 sequence (B6W2J3 whole entry): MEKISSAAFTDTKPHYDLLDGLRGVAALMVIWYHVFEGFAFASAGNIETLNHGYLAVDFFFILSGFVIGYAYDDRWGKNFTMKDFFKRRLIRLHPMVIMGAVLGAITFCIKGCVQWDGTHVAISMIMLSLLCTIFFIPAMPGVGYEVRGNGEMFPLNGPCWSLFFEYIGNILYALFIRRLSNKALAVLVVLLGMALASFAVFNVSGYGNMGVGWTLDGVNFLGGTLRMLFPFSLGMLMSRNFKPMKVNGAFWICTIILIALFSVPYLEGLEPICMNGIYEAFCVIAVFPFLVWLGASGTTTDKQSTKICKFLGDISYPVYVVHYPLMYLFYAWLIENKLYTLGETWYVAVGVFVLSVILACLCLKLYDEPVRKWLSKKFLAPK

[11] = biological target: T7, Esterase (Phocaeicola dorei, UniProt B6W2J6); experiment: as §2; type: ADME; design: dose 2 uM; conditions: 2 µM
T7 sequence (B6W2J6 whole entry): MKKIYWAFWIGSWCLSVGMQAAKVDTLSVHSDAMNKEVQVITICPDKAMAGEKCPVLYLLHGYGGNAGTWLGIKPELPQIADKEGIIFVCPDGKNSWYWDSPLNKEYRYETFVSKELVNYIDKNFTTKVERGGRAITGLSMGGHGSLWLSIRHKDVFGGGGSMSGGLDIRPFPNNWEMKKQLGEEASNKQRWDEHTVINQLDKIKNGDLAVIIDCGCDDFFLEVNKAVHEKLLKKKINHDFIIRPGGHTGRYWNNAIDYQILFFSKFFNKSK

[12] = The drug is tested on Bacteroides ovatus strain: ATCC8483 for biotransformation. The drug concentrations were measured before and after a 12-h incubation by liquid-chromatography-coupled mass spectrometry (LC–MS); conditions: 2 µM
[13] = The drug is tested on Eggerthella lenta strain: ATCC25559 for biotransformation. The drug concentrations were measured before and after a 12-h incubation by liquid-chromatography-coupled mass spectrometry (LC–MS); conditions: 2 µM
[14] = clostridioides difficile, 12 h, 2 µM
Description: The drug is tested on Clostridium difficile strain: 120 for biotransformation. The drug concentrations were measured before and after a 12-h incubation by liquid-chromatography-coupled mass spectrometry (LC–MS)

[15] = The drug is tested on Eubacterium biforme strain: DSM3989 for biotransformation. The drug concentrations were measured before and after a 12-h incubation by liquid-chromatography-coupled mass spectrometry (LC–MS); conditions: holdemanella biformis, 2 µM
[16] = The drug is tested on Clostridium hathewayi strain: DSM13479 for biotransformation. The drug concentrations were measured before and after a 12-h incubation by liquid-chromatography-coupled mass spectrometry (LC–MS); conditions: hungatella hathewayi, 2 µM
[17] = The drug is tested on Providencia stuartii strain: ATCC25827 for biotransformation. The drug concentrations were measured before and after a 12-h incubation by liquid-chromatography-coupled mass spectrometry (LC–MS); conditions: 2 µM

Row | SMILES | Bacterial Biotransformation [1] | Bacterial Biotransformation [2] | Bacterial Biotransformation [3] | Bacterial Biotransformation [4] | Bacterial Biotransformation [5] | Bacterial Biotransformation [6] | Bacterial Biotransformation [7] | Bacterial Biotransformation [8] | Bacterial Biotransformation [9] | Bacterial Biotransformation [10] | Bacterial Biotransformation [11] | Bacterial Biotransformation [12] | Bacterial Biotransformation [13] | Bacterial Biotransformation [14] | Bacterial Biotransformation [15] | Bacterial Biotransformation [16] | Bacterial Biotransformation [17]
1 | CC(=O)OCC(=O)[C@@]1(OC(C)=O)[C@@H](C)C[C@H]2[C@@H]3C[C@H](F)C4=CC(=O)C=C[C@]4(C)[C@@]3(F)[C@@H](O)C[C@@]21C [DIFLORASONE DIACETATE] | Compound metabolized | Compound metabolized | Compound NOT metabolized | Compound metabolized | Compound metabolized | Compound NOT metabolized | Compound NOT metabolized | Compound NOT metabolized | Compound NOT metabolized | Compound NOT metabolized | Compound NOT metabolized | Compound metabolized | – | – | – | – | –
2 | COc1ccc([C@@H]2Sc3ccccc3N(CCN(C)C)C(=O)[C@@H]2OC(C)=O)cc1 [DILTIAZEM] | Compound NOT metabolized | Compound metabolized | Compound NOT metabolized | – | Compound NOT metabolized | Compound NOT metabolized | Compound NOT metabolized | Compound NOT metabolized | Compound NOT metabolized | Compound NOT metabolized | Compound NOT metabolized | Compound metabolized | Compound metabolized | – | – | – | –
3 | CNCC[C@H](Oc1cccc2ccccc12)c1cccs1 [DULOXETINE] | Compound NOT metabolized | Compound NOT metabolized | Compound NOT metabolized | Compound NOT metabolized | – | – | – | – | – | – | – | Compound metabolized | Compound NOT metabolized | Compound metabolized | Compound NOT metabolized | Compound NOT metabolized | –
4 | CC(=O)OCC(CCn1cnc2cnc(N)nc21)COC(C)=O [FAMCICLOVIR] | – | Compound metabolized | Compound NOT metabolized | Compound metabolized | Compound metabolized | Compound NOT metabolized | Compound NOT metabolized | Compound NOT metabolized | Compound NOT metabolized | Compound NOT metabolized | Compound metabolized | Compound metabolized | – | – | – | – | Compound NOT metabolized
5 | CC(C)(C(=O)O)c1ccc(C(O)CCCN2CCC(C(O)(c3ccccc3)c3ccccc3)CC2)cc1 (configuration not stated) [FEXOFENADINE] | – | – | Compound NOT metabolized | Compound NOT metabolized | – | – | – | – | – | – | – | Compound NOT metabolized | – | Compound NOT metabolized | Compound NOT metabolized | – | Compound NOT metabolized
6 | O=C(CCCN1CCC(O)(c2ccc(Cl)cc2)CC1)c1ccc(F)cc1 [HALOPERIDOL] | – | – | Compound NOT metabolized | – | – | – | – | – | – | – | – | Compound NOT metabolized | – | Compound NOT metabolized | Compound NOT metabolized | Compound NOT metabolized | Compound NOT metabolized
7 | C#C[C@]1(O)CC[C@H]2[C@@H]3CCC4=CC(=O)CC[C@@H]4[C@H]3CC[C@@]21CC [LEVONORGESTREL] | Compound NOT metabolized | – | Compound NOT metabolized | Compound metabolized | Compound NOT metabolized | Compound NOT metabolized | Compound NOT metabolized | Compound NOT metabolized | Compound metabolized | Compound NOT metabolized | Compound NOT metabolized | Compound NOT metabolized | Compound NOT metabolized | – | – | – | Compound NOT metabolized
8 | COC(=O)Nc1nc2ccc(C(=O)c3ccccc3)cc2[nH]1 [MEBENDAZOLE] | – | Compound NOT metabolized | Compound NOT metabolized | – | – | – | – | – | – | – | – | Compound NOT metabolized | – | Compound NOT metabolized | Compound NOT metabolized | Compound NOT metabolized | –
9 | C#C[C@]1(OC(C)=O)CC[C@H]2[C@@H]3CCC4=CC(=O)CC[C@@H]4[C@H]3CC[C@@]21C [NORETHINDRONE ACETATE] | Compound metabolized | Compound NOT metabolized | Compound NOT metabolized | Compound metabolized | Compound NOT metabolized | Compound NOT metabolized | Compound NOT metabolized | Compound NOT metabolized | Compound metabolized | Compound NOT metabolized | Compound NOT metabolized | Compound metabolized | – | – | – | – | –
10 | C#C[C@]1(OC(C)=O)CC[C@H]2[C@@H]3CCC4=C/C(=N/O)CC[C@@H]4[C@H]3CC[C@@]21CC [NORGESTIMATE] | Compound NOT metabolized | Compound NOT metabolized | Compound NOT metabolized | Compound NOT metabolized | – | – | – | – | – | – | – | Compound NOT metabolized | Compound metabolized | – | Compound metabolized | Compound NOT metabolized | Compound NOT metabolized

Source: ChEMBL document CHEMBL5303573, “Mapping human microbiome drug metabolism by gut bacteria and their genes” (Nature, 2019)
